Results: paper PMC4830539, “Chemical Inhibition of Histone Deacetylases 1 and 2 Induces Fetal Hemoglobin through Activation of GATA2” (PLoS ONE, 2016)

Key:
[1] = system: GATA2 binding at the HBD promoter; assay: GATA2 ChIP-QPCR at the HBD promoter; type: cell-based, human; conditions: 1 μM
Description: Cells were fixed in 1% formaldehyde for 15 minutes at room temperature. Crosslinking reaction was extinguished by adding glycine to 125 mM. Cells were washed three times in PBS, 0.5% lgepal CA-630, 1 mM phenylmethanesulfonyl fluoride (PMSF). Cell pellets were snap frozen on dry ice and stored at -80°C.
For ChIP-QPCR experiments, chromatin (11 μg) from vehicle (n = 1) or ACY-957 (n = 1) treated cells was fragmented by sonication, then immunoprecipitated (n = 3, each) using antibodies against histone H3 lysine 9 acetylation (3 μg, ab10812, Abcam), histone H2B lysine 5 acetylation (6 μL, ab40886, Abcam), histone H3 lysine 27 acetylation (3 μg, ab4729, Abcam), or GATA2 (6 μg, SC-9008, Santa Cruz). Specific genomic regions within immunoprecipitated and input DNA was detected using SYBR green QPCR with the following primer pairs:
GATA2 could affect HBG indirectly, through altering the expression of other factors which, in turn, act directly at the β-like globin gene cluster. […] To investigate this possibility, we looked at the β-like globin gene cluster in the GATA2 ChIP-Seq data presented above. Six statistically significant GATA2 binding peaks were identified in vehicle treated cells across the 70 kb region (Fig 9A); corresponding to four locus control region (LCR) hypersensitivity sites, a region in the HBB gene, and a region near the HBD gene promoter. […]

HDAC2 = HDAC2 (Homo sapiens, UniProt Q92769); assay: In vitro biochemical HDAC enzyme assay; design: purchased BPS Biosciences; conditions: 24 hours pre-incubation; mean, n = 4
Description: In vitro biochemical assays were performed as described previously. Specifically, drugs were dissolved and diluted in assay buffer (50 mM HEPES, pH 7.4, 100 mM KCl, 0.001% Tween-20, 0.05% BSA, and 20 μM Tris (2-carboxyethyl)phosphine) to 6-fold the final concentration. HDAC enzymes (BPS Biosciences) were diluted to 1.5-fold of the final concentration in assay buffer and pre-incubated with ACY-957 for 24 hours before the addition of the substrate. The amount of substrate (acetyl-lysine tripeptide substrate for HDAC1, HDAC2, HDAC3, and HDAC6 or trifluoroacetyl-lysine tripeptide for HDAC4, HDAC5, HDAC7, HDAC8, and HDAC9) used for each enzyme was equal to the Michaelis constant (Km), as determined by a titration curve. Substrate was diluted in assay buffer to 6-fold the final concentration with 0.3 μM sequencing grade trypsin (Sigma-Aldrich). The substrate/trypsin mix was added to the enzyme/compound mix and the plate was shaken for 5 seconds and then placed into a SpectraMax M5 microtiter plate reader (Molecular Devices). The enzymatic reaction was monitored over 30 minutes for release of […] after deacetylation of the lysine side chain in the peptide substrate, and the linear rate of the reaction was calculated.
ACY-957 was tested against each individual HDAC in an in vitro biochemical assay as previously described. […]

HBG mRNA = assay: HBG induction in GATA2 knockdown BM cells; type: cell-based, human; conditions: 1 μM, 4 days, CS1 expansion media
Description: shRNA experiments were conducted using the RNAi consortium (TRC) TRC1.5 vector, also known as pLKO.1-puro (Sigma). Five vectors containing shRNA targeting GATA2 were screened in expanded BM cells and the two hairpins yielding the greatest knockdown of GATA2 mRNA were selected for further use: shG2-1, TRCN0000019264 and shG2-2, TRCN0000019265. […] Lentiviral supernatants were produced in the 293T cell line using shRNA vectors, viral packaging mix (Sigma, SHP001), and TransIT-293 transfection reagent (Mirus Bio, Madison, WI). BM cells were grown for 3 days in CS1 expansion media, and then transduced using lentiviral supernatant’s supplemented with 5 μg/mL of polybrene under room temperature centrifugation at 1200 x g for 75 minutes. Transduced cells were grown for two days to allow for expression of construct, followed by selection for two days in 1 μg/mL of puromycin. The GATA2 overexpression vector (oeG2) was constructed by removing the GFP cassette of the pLKO.1-puro-CMV-TurboGFP vector (Sigma, SHC003) at the 5' NheI and 3' PstI cloning sites and replacing it with the full-length GATA2 transcript sequence (Refseq NM_001145661) (GenScript, Piscataway, NJ). pLKO.1-puro-CMV-TurboGFP vector was used as a control (oeGFP). BM cells were grown for 3 days in CS1 expansion media, and then transduced using the RetroNectin-bound virus method according to manufacturer’s protocol. […]

[2] = design: method as in earlier work; conditions: mouse; cited from earlier work

HDAC2, sequence (Q92769 whole entry): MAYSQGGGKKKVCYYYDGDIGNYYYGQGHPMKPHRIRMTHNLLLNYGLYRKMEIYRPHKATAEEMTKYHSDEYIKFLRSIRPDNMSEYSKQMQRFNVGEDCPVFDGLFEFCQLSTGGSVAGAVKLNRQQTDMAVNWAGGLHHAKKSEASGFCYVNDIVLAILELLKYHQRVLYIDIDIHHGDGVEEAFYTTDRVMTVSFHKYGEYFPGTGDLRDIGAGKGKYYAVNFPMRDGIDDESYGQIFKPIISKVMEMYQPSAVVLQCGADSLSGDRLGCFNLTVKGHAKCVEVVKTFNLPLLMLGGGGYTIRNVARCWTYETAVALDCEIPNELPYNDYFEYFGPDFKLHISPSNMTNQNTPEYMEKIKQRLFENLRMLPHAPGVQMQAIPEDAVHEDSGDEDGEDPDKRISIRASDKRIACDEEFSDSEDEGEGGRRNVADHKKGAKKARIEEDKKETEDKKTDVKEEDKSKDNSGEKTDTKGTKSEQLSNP

GATA2 binding at control region within the HBB gene [1]: unaffected
IC50 (HDAC2): 18 nM
SMILES: Nc1ccc(-c2cccs2)cc1NC(=O)c1ccc2nc(N3CCNCC3)ccc2c1 [ACY-957]
increase in GATA2 binding at the HBD promoter [1]: 2 fold
reduction of the magnitude of HBG mRNA induction in shG2-1 and shG2-2 cells relative to shCtrl cells (HBG mRNA): 25%
pharmacokinetic properties [2]: favorable
